Experiments:
[1] = tested on: MOLM-13 cells; experiment: Proliferation, [3H]-thymidine uptake, MOLM-13; format: cell-based
Protocol: [The source words this procedure for another cell line and reports this cell line under the same test.] (§1) Acute myeloid leukemia cell line HL-60 and multiple myeloma cell lines AMO-1 and KMS-12-PE were obtained from the German Collection of Microorganisms and Cell Cultures (DSMZ), Braunschweig, Germany, and non-tumorigenic stromal cell line HS-5 was acquired from the American Type Culture Collection (ATCC, Manassas, VA, USA). All cell lines were cultured in RPMI 1640 medium without phenol red (Pan Biotech, Aidenbach, Germany), supplemented with 2 mM glutamine, 100 U/mL penicillin, 100 µg/mL streptomycin (Sigma-Aldrich, St. Louis, MO, USA), and 10% fetal bovine serum (FBS Maximus, Catus Biotech GmbH, Tutzing, Germany) at 37 °C in a humidified atmosphere of 5% CO2/95% air. Cells were fed twice weekly. Logarithmically growing cells were resuspended at 1 × 10^5 cells/mL, plated in triplicate in round-bottom 96-well plates (100 µL per well; Falcon, Becton Dickinson, Franklin Lakes, NJ, USA), and incubated at 37 °C in 5% CO2/95% air for 2 h. Subsequently, the compounds were adjusted in the cell culture medium to reach the final concentrations in a total volume of 150 µL and incubated for an additional 72 h. Cell proliferation was assessed by [^3H]-thymidine uptake. Each well was exposed to 2 µCi [^3H]-thymidine (Hartmann Analytic, Braunschweig, Germany) during the final 12–16 h of incubation. Cells were harvested using a semi-automated device, and [^3H]-thymidine incorporation (expressed in counts per minute, cpm) was measured with a scintillation counter (MicroBeta TriLux, PerkinElmer, Waltham, MA, USA). Metabolic activity was assessed by resazurin staining. Resazurin (Carl Roth, Karlsruhe, Germany) was dissolved in distilled water at a concentration of 0.1 mg/mL, and 15 µL of this solution was added to each well, followed by a 2 h incubation at 37 °C. Relative fluorescence units (RFUs) were measured using a Synergy H1 plate reader equipped with a 560 nm excitation/590 nm emission filter set (BioTek; Agilent, Santa Clara, CA, USA). Proliferation and metabolic activity in the absence of compounds were defined as 100% (control), and the values for compound-treated samples were expressed as percentages relative to the control. Selectivity indices were calculated by dividing the IC50 value of each compound against HS-5 cells through the IC50 values against the investigated cell lines.
(§2) The Wilcoxon Rank Sum Test was used to analyze proliferation and metabolic activity in the absence and presence of varying compound concentrations (NCSS 2007 software, version 07.1.2, Kaysville, UT, USA). A p-value < 0.05 was considered statistically significant. IC50 values were calculated using GraphPad Prism 10.1.2. This software reports 95% confidence intervals instead of standard errors. […] Nonetheless, the figures clearly illustrate the IC50 values due to the narrow concentration range tested.

[2] = tested on: AMO-1 cells; experiment: Proliferation, [3H]-thymidine uptake, AMO-1; format: cell-based
Protocol: as §1, §2

[3] = tested on: KMS-12-PE cells; experiment: Proliferation, [3H]-thymidine uptake, KMS-12-PE; format: cell-based
Protocol: as §1, §2

[4] = tested on: HL-60, MOLM-13, AMO-1, and KMS-12 PE cancer cells; experiment: Proliferation, range over the four tested cancer cell lines; format: cell-based; conditions: HL-60, MOLM-13, AMO-1, KMS-12 PE; read-out: IC50 inhibition of proliferation, range over cell lines
Protocol: (§3) Acute myeloid leukemia cell line HL-60 and multiple myeloma cell lines AMO-1 and KMS-12-PE were obtained from the German Collection of Microorganisms and Cell Cultures (DSMZ), Braunschweig, Germany, and non-tumorigenic stromal cell line HS-5 was acquired from the American Type Culture Collection (ATCC, Manassas, VA, USA). All cell lines were cultured in RPMI 1640 medium without phenol red (Pan Biotech, Aidenbach, Germany), supplemented with 2 mM glutamine, 100 U/mL penicillin, 100 µg/mL streptomycin (Sigma-Aldrich, St. Louis, MO, USA), and 10% fetal bovine serum (FBS Maximus, Catus Biotech GmbH, Tutzing, Germany) at 37 °C in a humidified atmosphere of 5% CO2/95% air. […] Cell proliferation was assessed by [^3H]-thymidine uptake. […] Cells were harvested using a semi-automated device, and [^3H]-thymidine incorporation (expressed in counts per minute, cpm) was measured with a scintillation counter (MicroBeta TriLux, PerkinElmer, Waltham, MA, USA). Metabolic activity was assessed by resazurin staining. […] Relative fluorescence units (RFUs) were measured using a Synergy H1 plate reader equipped with a 560 nm excitation/590 nm emission filter set (BioTek; Agilent, Santa Clara, CA, USA). Proliferation and metabolic activity in the absence of compounds were defined as 100% (control), and the values for compound-treated samples were expressed as percentages relative to the control. […]

[5] = tested on: HL-60, MOLM-13, AMO-1, and KMS-12 PE cancer cells; experiment: Metabolic activity, range over the four tested cancer cell lines; format: cell-based; conditions: HL-60, MOLM-13, AMO-1, KMS-12 PE; read-out: IC50 inhibition of metabolic activity, range over cell lines
Protocol: as §3

[6] = tested on: CEM; parameters: method as in PMID 15577239; conditions: cited from earlier work
[7] = tested on: KB cell line; parameters: method as in PMID 17089326; conditions: cited from earlier work

## C=C(C)C(=O)O[C@H]1C[C@@]2(C)OC(=CC2=O)/C(CO)=C\[C@H]2OC(=O)C(=C)[C@H]12 [Compound 5, goyazensolide]
[1]; Homo sapiens, MOLM-13, 72 h, 95% confidence interval in brackets, read-out: IC50 inhibition of proliferation
  IC50: 1000 nM
[1]; IC50 HS-5 / IC50 MOLM-13
  Selectivity index (proliferation): 2.0
[2]; Homo sapiens, AMO1, 72 h, AMO-1, 72 h, 95% confidence interval in brackets, read-out: IC50 inhibition of proliferation
  IC50: 1600 nM
[2]; IC50 HS-5 / IC50 AMO-1
  Selectivity index (proliferation): 1.2
[3]; Homo sapiens, KMS-12-PE, 72 h, KMS-12-PE, 72 h, 95% confidence interval in brackets, read-out: IC50 inhibition of proliferation
  IC50: 1500 nM
[3]; IC50 HS-5 / IC50 KMS-12-PE
  Selectivity index (proliferation): 1.3
[4]
  IC50: 1000 to 1600 nM
[5]
  IC50: 1000 to 2000 nM
[6]
  IC50: 170 nM
[7]
  IC50: < 300 nM
